From patent US11447505B1, “Pyrrolo[2,3-b]pyridine compounds and their use in the treatment of cancer” (priority 2017, dated 2022)
Like-named read-outs stand apart in the source and are kept apart here.

Legend:
ROCK2 = ROCK2 (Homo sapiens (Human), UniProt O75116); experiment: ROCK2 kinase assay (IMAP fluorescence polarization); format: biochemical; details: 1 μM ATP; read-out: ROCK2 Average Ki
Experimental: MRCKα, MRCKβ, ROCK1 and ROCK2 assays were performed using an IMAP fluorescence polarization assay format (Molecular Devices Inc.). 8-12 nM of each kinase (Life Technologies) was incubated for 60 min at room temperature with 100 nM FAM-S6-ribosomal protein derived peptide (synthesized by Alta Biosciences, University of Birmingham UK) in the presence of 1 μM ATP and 0.5 mM MgCl2 in 20 mM Tris buffer (pH 7.4) containing 0.01% Tween-20 and 1 mM DTT (MRCKα and β); or 1 μM ATP, 10 mM MgCl2 in 20 mM Tris buffer (pH 7.5) containing 0.25 mM EGTA 0.01% Triton X-100 and 1 mM DTT (ROCK1 and ROCK2). Typically, dose response analyses were performed over concentration ranges from 0.005-100 μM. Reactions were stopped by adding 2 assay volumes of 0.25% (v/v) IMAP binding reagent in 1×IMAP binding buffer A (Molecular Devices). After 30 min incubation to allow binding reagent to bind phosphorylated peptide, fluorescence polarization was measured on a Tecan Saphire^2 plate reader at excitation (470 nm) and emission (530 nm) wavelengths.

MRCKβ [1] = target: T1, MRCKβ (Homo sapiens (Human), UniProt Q9Y5S2); experiment: MRCKβ kinase assay (IMAP fluorescence polarization); format: biochemical
From the text: (§1) MRCKα, MRCKβ, ROCK1 and ROCK2 Kinase Assays

ROCK1 [2] = target: T2, ROCK1 (Homo sapiens (Human), UniProt Q13464); experiment: biochemical
T2 sequence (Q13464 2-1354 limits assumed): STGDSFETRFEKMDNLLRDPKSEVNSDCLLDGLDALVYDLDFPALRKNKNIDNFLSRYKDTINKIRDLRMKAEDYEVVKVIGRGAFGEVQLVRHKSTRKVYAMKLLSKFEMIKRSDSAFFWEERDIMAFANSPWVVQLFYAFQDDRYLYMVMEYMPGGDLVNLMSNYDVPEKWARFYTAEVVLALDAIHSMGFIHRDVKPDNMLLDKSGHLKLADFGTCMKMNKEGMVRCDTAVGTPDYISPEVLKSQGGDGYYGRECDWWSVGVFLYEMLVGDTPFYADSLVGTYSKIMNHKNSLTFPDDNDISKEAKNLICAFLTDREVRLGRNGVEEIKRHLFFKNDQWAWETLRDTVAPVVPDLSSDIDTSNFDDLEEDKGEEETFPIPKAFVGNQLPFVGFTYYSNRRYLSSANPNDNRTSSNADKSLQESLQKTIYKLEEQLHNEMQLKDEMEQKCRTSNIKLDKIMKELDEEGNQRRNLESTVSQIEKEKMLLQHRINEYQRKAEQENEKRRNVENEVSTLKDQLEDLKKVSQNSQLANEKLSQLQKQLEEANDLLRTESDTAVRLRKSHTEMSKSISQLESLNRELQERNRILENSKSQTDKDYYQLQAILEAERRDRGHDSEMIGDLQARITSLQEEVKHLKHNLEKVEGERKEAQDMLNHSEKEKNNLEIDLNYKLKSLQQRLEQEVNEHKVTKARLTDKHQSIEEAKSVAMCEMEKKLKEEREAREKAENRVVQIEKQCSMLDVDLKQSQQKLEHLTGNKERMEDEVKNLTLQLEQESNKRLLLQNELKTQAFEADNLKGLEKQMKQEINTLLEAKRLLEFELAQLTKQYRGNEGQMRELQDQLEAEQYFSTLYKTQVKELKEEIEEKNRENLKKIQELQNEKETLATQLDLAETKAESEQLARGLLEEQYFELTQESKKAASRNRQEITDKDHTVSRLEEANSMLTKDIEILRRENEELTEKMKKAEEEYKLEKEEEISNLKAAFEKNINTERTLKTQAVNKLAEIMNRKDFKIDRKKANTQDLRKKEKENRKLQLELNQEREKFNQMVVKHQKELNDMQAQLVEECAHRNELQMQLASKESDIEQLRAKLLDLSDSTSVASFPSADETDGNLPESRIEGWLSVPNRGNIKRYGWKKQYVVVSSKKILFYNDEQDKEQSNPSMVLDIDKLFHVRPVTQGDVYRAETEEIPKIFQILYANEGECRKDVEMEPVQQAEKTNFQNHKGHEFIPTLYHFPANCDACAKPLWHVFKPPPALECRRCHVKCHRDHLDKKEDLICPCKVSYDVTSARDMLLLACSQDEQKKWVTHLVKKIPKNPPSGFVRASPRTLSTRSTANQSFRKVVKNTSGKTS

MRCKα = MRCKα (Homo sapiens (Human), UniProt Q5VT25); experiment: MRCKα kinase assay (IMAP fluorescence polarization); format: biochemical; details: 1 μM ATP; read-out: MRCK-a Average Ki
Chain of MRCKα (Q5VT25 whole entry): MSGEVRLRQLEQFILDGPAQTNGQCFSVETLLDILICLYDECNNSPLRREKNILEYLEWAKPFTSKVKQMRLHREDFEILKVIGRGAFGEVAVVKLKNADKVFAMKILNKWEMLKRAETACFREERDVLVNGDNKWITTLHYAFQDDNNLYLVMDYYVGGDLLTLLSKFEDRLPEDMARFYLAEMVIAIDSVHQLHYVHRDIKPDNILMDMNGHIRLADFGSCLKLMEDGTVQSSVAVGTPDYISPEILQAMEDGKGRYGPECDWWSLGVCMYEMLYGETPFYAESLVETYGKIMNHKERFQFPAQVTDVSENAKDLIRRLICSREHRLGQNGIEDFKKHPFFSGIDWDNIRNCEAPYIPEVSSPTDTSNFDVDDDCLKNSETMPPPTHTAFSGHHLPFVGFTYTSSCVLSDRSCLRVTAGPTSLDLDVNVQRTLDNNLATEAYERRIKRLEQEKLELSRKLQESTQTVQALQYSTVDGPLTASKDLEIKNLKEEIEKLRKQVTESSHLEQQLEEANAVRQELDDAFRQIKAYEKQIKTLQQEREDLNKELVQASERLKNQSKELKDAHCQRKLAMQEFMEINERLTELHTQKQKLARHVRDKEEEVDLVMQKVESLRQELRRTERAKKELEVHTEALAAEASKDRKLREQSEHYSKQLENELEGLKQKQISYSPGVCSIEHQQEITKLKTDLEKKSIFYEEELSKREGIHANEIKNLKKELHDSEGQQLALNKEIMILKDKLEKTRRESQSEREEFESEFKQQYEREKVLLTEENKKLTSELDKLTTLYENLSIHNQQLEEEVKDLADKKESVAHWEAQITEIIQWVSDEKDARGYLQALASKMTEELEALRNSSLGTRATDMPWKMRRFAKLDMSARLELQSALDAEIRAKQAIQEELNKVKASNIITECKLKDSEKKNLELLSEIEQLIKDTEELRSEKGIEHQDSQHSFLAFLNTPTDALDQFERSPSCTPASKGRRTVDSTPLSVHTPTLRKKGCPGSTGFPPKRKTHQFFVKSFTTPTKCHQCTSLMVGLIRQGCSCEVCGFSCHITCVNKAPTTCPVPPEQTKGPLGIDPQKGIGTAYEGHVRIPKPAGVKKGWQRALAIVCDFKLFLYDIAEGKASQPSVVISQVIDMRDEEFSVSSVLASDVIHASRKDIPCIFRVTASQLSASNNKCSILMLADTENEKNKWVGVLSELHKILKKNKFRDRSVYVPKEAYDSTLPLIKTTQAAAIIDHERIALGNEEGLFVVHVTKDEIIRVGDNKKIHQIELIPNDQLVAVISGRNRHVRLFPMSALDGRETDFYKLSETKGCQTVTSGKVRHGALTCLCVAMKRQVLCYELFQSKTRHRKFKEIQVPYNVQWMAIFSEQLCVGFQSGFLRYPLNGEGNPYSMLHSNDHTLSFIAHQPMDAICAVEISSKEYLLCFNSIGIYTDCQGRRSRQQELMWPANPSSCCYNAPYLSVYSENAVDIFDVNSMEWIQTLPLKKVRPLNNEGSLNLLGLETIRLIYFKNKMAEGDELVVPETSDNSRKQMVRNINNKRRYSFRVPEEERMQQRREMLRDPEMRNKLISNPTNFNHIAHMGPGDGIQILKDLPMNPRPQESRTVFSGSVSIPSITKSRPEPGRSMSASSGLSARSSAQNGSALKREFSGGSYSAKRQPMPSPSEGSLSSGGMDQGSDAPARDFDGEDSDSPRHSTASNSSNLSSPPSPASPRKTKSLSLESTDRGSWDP
From the text: as §1

MRCKβ [3] = target: T1, MRCKβ; experiment: MRCKβ cellular assay (pMLC T18/S19 immunoblot, MDA-MB-231 cells with doxycycline inducible kinase domain); format: cell-based
Experimental: MRCKβ, ROCK1 and ROCK2 Cellular Assays
MDA-MB-231 cells expressing doxycycline inducible ROCK1, ROCK2 or MRCKβ kinase domains were plated at 1.1×10^5 cells per well of a 12 well plate. After 24 hours, cells were treated with 1 μg/ml doxycycline for 18 hours to induce kinase domain expression and then tested over a suitable concentration range with compounds of the invention for 60 minutes. Cells were then washed with PBS and lysed with Tris-SDS lysis Buffer (50 mM Tris-HCl pH7.4, 0.5% (v/v) SDS, 1×PhosStop Inhibitors (04 906 837 001; Roche) and 1×Complete Protease Inhibitors (04 693 124 001; Roche)). Whole cell lysates were clarified by passing through QIAshredder spin columns, separated by SDS-PAGE, and quantitative immunoblotting performed using a LI-COR Odyssey IR scanner to determine pMLC (T18/S19) and α-Tubulin levels.

ROCK1 [4] = target: T2, ROCK1; details: read-out: ROCK1 Average Ki; 1 μM ATP
[5] = 1 μM ATP, read-out: MRCK-B Average Ki
[6] = MDA-MB-231 cells, doxycycline inducible kinase domain, 60 minutes, pMLC (T18/S19), read-out: Cellular assay - MRCK-b inhibition MEAN

Chain of ROCK2 (O75116 whole entry): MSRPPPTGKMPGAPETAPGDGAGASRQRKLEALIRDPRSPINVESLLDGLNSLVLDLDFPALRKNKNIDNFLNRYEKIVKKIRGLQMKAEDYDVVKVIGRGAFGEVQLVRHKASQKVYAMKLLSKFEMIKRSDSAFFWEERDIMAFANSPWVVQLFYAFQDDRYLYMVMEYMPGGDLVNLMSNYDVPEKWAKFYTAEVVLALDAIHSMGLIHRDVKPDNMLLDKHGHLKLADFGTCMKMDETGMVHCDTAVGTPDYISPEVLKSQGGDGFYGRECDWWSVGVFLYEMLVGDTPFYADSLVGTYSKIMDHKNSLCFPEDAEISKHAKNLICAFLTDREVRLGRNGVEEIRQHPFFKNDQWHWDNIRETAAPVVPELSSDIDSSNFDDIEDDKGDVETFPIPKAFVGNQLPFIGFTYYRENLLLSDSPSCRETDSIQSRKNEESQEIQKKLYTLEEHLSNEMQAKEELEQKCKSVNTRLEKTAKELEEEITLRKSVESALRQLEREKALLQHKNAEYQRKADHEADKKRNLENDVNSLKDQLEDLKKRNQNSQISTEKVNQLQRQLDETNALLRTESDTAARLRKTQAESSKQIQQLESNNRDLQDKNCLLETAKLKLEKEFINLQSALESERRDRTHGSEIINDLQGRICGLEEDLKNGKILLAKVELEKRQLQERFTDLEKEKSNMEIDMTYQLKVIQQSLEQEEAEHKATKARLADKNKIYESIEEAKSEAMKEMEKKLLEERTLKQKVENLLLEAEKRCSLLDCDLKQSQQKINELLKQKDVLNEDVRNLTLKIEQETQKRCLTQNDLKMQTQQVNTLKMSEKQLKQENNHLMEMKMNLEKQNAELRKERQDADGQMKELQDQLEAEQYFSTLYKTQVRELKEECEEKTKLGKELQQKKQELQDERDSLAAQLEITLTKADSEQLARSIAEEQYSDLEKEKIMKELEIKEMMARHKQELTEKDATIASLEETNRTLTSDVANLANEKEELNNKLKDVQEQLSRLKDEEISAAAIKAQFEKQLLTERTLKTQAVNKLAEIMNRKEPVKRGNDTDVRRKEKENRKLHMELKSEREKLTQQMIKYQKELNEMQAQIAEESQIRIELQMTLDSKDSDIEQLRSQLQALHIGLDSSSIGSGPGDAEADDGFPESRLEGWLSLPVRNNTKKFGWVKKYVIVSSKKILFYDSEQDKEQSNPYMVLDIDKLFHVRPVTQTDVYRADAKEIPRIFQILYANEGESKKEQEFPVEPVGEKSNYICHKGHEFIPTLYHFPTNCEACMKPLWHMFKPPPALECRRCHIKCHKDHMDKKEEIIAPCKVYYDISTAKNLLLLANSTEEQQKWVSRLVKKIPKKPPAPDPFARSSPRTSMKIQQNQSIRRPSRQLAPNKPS

Structure (SMILES) | Ki (ROCK2) [nM] | Ki (MRCKβ [1]; [5]) [nM] | Ki (ROCK1 [2]) [nM] | Ki (MRCKα) [nM] | IC50 (MRCKβ [3]; [6]) [nM] | Ki (ROCK1 [4]) [nM] | IC50 (MRCKβ [3]) [nM] | Ki (MRCKβ [1]) [nM]
Nc1cncc(-c2c[nH]c3nccc(N4CCCCC4)c23)c1 [Example E6, 5-[4-(1-piperidyl)-1H-pyrrolo[2,3-b]pyridin-3-yl]pyridin-3-amine] | 1.9 | 1.11 | 3.5 | – | – | – | – | –
N#Cc1c[nH]c2nccc(N3CCC[C@H]3CO)c12 [Example E38, 4-[(2S)-2-(hydroxymethyl)pyrrolidin-1-yl]-1H-pyrrolo[2,3-b]pyridine-3-carbonitrile] | 12.7 | 5.08 | 16.7 | – | – | – | – | –
N#Cc1c[nH]c2nccc(N3CCC[C@@H]3CO)c12 [Example E39, 4-[(2R)-2-(hydroxymethyl)pyrrolidin-1-yl]-1H-pyrrolo[2,3-b]pyridine-3-carbonitrile] | 86.8 | 29.7 | 103 | – | – | – | – | –
N#Cc1c[nH]c2nccc(N3CCC[C@H]3COc3ccccc3)c12 [Example E40, 4-[(2S)-2-(phenoxymethyl)pyrrolidin-1-yl]-1H-pyrrolo[2,3-b]pyridine-3-carbonitrile] | 1070 | 247 | 2150 | – | – | – | – | –
c1cc(-c2c[nH]c3nccc(N4CCC[C@H](NC5CC5)C4)c23)ncn1 [Example E41, (3S)—N-cyclopropyl-1-(3-pyrimidin-4-yl-1H-pyrrolo[2,3-b]pyridin-4-yl)piperidin-3-amine] | – | 0.202 | 34.4 | – | – | – | – | –
c1cc(-c2c[nH]c3nccc(N4CCC[C@H](NC5CC5)C4)c23)cnn1 [Example E46, (3S)-N-cyclopropyl-1-(3-pyridazin-4-yl-1H-pyrrolo[2,3-b]pyridin-4-yl)piperidin-3-amine] | 233 | 0.238 | 11.9 | 0.322 | 1540 | – | – | –
CN[C@H]1CCCN(c2ccnc3[nH]cc(-c4nccs4)c23)C1 [Example E47, (3S)-N-methyl-1-(3-thiazol-2-yl-1H-pyrrolo[2,3-b]pyridin-4-yl)piperidin-3-amine] | 103 | 0.304 | 595 | 0.158 | 1530 | – | – | –
CN(C)C1CCCN(c2ccnc3[nH]cc(-c4cncnc4)c23)C1 (centres unmarked) [Example E60, N,N-dimethyl-1-(3-pyrimidin-5-yl-1H-pyrrolo[2,3-b]pyridin-4-yl)piperidin-3-amine] | 201 | 13.6 | 404 | – | – | – | – | –
CN[C@H]1CCCN(c2ccnc3[nH]cc(-c4ccncn4)c23)C1 [Example E66, (3S)-N-methyl-1-(3-pyrimidin-4-yl-1H-pyrrolo[2,3-b]pyridin-4-yl)piperidin-3-amine] | 99.2 | 0.17 | 241 | 0.238 | 1780 | – | – | –
Brc1cnc2[nH]cc(-c3cc[nH]n3)c2c1N1CCCCC1 [Example E70, 5-bromo-4-(1-piperidyl)-3-(1H-pyrazol-3-yl)-1H-pyrrolo[2,3-b]pyridine] | 276 | 346 | 1300 | – | – | – | – | –
CN[C@H]1CCCN(c2ccnc3[nH]cc(-c4cc[nH]n4)c23)C1 [Example E83, (3S)-N-methyl-1-[3-(1H-pyrazol-3-yl)-1H-pyrrolo[2,3-b]pyridin-4-yl]piperidin-3-amine] | 196 | 1.85 | 1110 | 0.481 | – | – | – | –
c1ncc(-c2c[nH]c3nccc(N[C@H]4CCCNC4)c23)cn1 [Example E87, N-[(3S)-3-piperidyl]-3-pyrimidin-5-yl-1H-pyrrolo[2,3-b]pyridin-4-amine] | 326 | 54.3 | 50300 | 33.6 | – | – | – | –
OC1CCN([C@H]2CCCN(c3ccnc4[nH]cc(-c5cncnc5)c34)C2)CC1 [Example E92, 1-[(3S)-1-(3-pyrimidin-5-yl-1H-pyrrolo[2,3-b]pyridin-4-yl)-3-piperidyl]piperidin-4-ol] | 1510 | 4.97 | 5000 | – | – | – | – | –
OC1CCN([C@H]2CCCN(c3ccnc4[nH]cc(-c5cncnc5)c34)C2)C1 (stereo partly drawn) [Example E93, [(3S)-1-(3-pyrimidin-5-yl-1H-pyrrolo[2,3-b]pyridin-4-yl)-3-piperidyl]pyrrolidin-3-ol] | 830 | 4.78 | 2380 | 11.6 | – | – | – | –
c1csc(-c2c[nH]c3nccc(N4CCC5(CCCCN5)C4)c23)n1 (centres unmarked) [Example E155, 2-[4-(2,6-diazaspiro[4.5]decan-2-yl)-1H-pyrrolo[2,3-b]pyridin-3-yl]thiazole] | – | – | 79.5 | – | – | – | 218 | 0.0822
N#Cc1c[nH]c2nccc(N3CCC[C@]4(CCCCN4)C3)c12 [Example E186, 4-[(6R)-1,8-diazaspiro[5.5]undecan-8-yl]-1H-pyrrolo[2,3-b]pyridine-3-carbonitrile] | – | – | 347 | – | – | – | – | –
c1ncc(-c2c[nH]c3nccc(OC[C@H]4CCCNC4)c23)cn1 [Example E218, 4-[[(3S)-3-piperidyl]methoxy]-3-pyrimidin-5-yl-1H-pyrrolo[2,3-b]pyridine] | 17.6 | 1.15 | 18.6 | 0.189 | – | – | – | –

Further lines, with some results ahead:

Ki (ROCK2) [nM] | Ki (MRCKβ [1]; [5]) [nM] | Ki (ROCK1 [2]) [nM] | Ki (MRCKα) [nM] | IC50 (MRCKβ [3]; [6]) [nM] | Ki (ROCK1 [4]) [nM] | Structure (SMILES) | IC50 (MRCKβ [3]) [nM] | Ki (MRCKβ [1]) [nM]
277 | 71.3 | 505 | – | – | – | O[C@@H]1CCCN(c2ccnc3[nH]cc(-c4cncnc4)c23)C1 [Example E100, (3R)-1-(3-pyrimidin-5-yl-1H-pyrrolo[2,3-b]pyridin-4-yl)piperidin-3-ol] | – | –
6.42 | 0.0813 | 18.3 | 0.0683 | 40.5 | – | c1cc(N2CCCC3(CCCCN3)C2)c2c(-c3cnsc3)c[nH]c2n1 (centres unmarked) [Example E114, 4-[4-(1,8-diazaspiro[5.5]undecan-8-yl)-1H-pyrrolo[2,3-b]pyridin-3-yl]isothiazole] | – | –
– | 2.48 | ≥ 100000 | – | – | – | c1cc(N2CCC[C@]3(CCCCN3)C2)c2c(-c3ncsn3)c[nH]c2n1 [Example E115, 3-[4-[(6R)-1,8-diazaspiro[5.5]undecan-8-yl]-1H-pyrrolo[2,3-b]pyridin-3-yl]-1,2,4-thiadiazole] | – | –
4.41 | 0.0652 | – | 0.0317 | 420 | 10.6 | c1cc(-c2c[nH]c3nccc(N4CC[C@@]5(CCCCN5)C4)c23)ncn1 [Example E128, (5S)-2-(3-pyrimidin-4-yl-1H-pyrrolo[2,3-b]pyridin-4-yl)-2,6-diazaspiro[4.5]decane] | – | –
30.9 | 0.065 | – | – | < 30 | 89 | c1cc(-c2c[nH]c3nccc(N4CCCC5(CCCCN5)C4)c23)ncn1 (centres unmarked) [Example E168, 8-(3-pyrimidin-4-yl-1H-pyrrolo[2,3-b]pyridin-4-yl)-1,8-diazaspiro[5.5]undecane] | – | –
119 | 0.181 | – | 0.517 | 622 | 423 | CC1(N)CCCN(c2ccnc3[nH]cc(-c4cncnc4)c23)C1 (centres unmarked) [Example E178, 3-methyl-1-(3-pyrimidin-5-yl-1H-pyrrolo[2,3-b]pyridin-4-yl)piperidin-3-amine] | – | –
1580 | 124 | 3420 | – | – | – | CN1CC[C@@H]2CCN(c3ccnc4[nH]cc(-c5cncnc5)c34)C[C@@H]21 [Example E180, 4-[(3aR,7aR)-1-methyl-3,3a,4,5,7,7a-hexahydro-2H-pyrrolo[2,3-c]pyridin-6-yl]-3-pyrimidin-5-yl-1H-pyrrolo[2,3-b]pyridine] | – | –
7 | 8.82 | 19.8 | – | – | – | N#Cc1c[nH]c2nccc(N3CC[C@@H](N)C3)c12 [Example E197, 4-[(3R)-3-aminopyrrolidin-1-yl]-1H-pyrrolo[2,3-b]pyridine-3-carbonitrile] | – | –
145 | 3.13 | 196 | – | – | – | CN1CC[C@H]2CN(c3ccnc4[nH]cc(-c5cncnc5)c34)CC[C@H]21 [Example E200, 4-[(3aS,7aR)-1-methyl-3,3a,4,6,7,7a-hexahydro-2H-pyrrolo[3,2-c]pyridin-5-yl]-3-pyrimidin-5-yl-1H-pyrrolo[2,3-b]pyridine] | – | –
703 | 147 | 1050 | – | – | – | CN1CCCN(C(=O)[C@@H]2CCCN2c2ccnc3[nH]cc(C#N)c23)CC1 [Example E201, 4-[(2S)-2-(4-methyl-1,4-diazepane-1-carbonyl)pyrrolidin-1-yl]-1H-pyrrolo[2,3-b]pyridine-3-carbonitrile] | – | –
32.1 | 1.07 | 42 | – | – | – | c1ncc(-c2c[nH]c3nccc(OC[C@@H]4CCCNC4)c23)cn1 [Example E214, 4-[[(3R)-3-piperidyl]methoxy]-3-pyrimidin-5-yl-1H-pyrrolo[2,3-b]pyridine] | – | –
102 | 3.29 | 152 | 1.91 | – | – | CN1CCC[C@@H](COc2ccnc3[nH]cc(-c4cncnc4)c23)C1 [Example E224, 4-[[(3R)-1-methyl-3-piperidyl]methoxy]-3-pyrimidin-5-yl-1H-pyrrolo[2,3-b]pyridine] | – | –
